Test results: EP0423247B1, “COUMAMIDINE COMPOUNDS” (ABBOTT LABORATORIES, priority 1988, dated 1990)
≈ marks a conversion by molar mass, not a printed value.

Key:
[1] = test system: Actinetobacter SP CMX 669; assay: MIC, agar dilution method (Brain Heart Infusion agar); format: cell-based; settings: Actinetobacter SP CMX 669, grown aerobically, BHI agar, read-out: Minimum inhibitory concentrations
Method: (§1) Minimum inhibitory concentration (MIC) was determined by the agar dilution method, described hereinbelow, using Brain Heart Infusion agar.
(§2) Twelve petri dishes were prepared, each containing successive aqueous 2-fold dilutions of the test compounds mixed with 10 mL of sterilized Brain Heart Infusion (BHI) agar.
(§3) The MIC was defined as the lowest concentration of test compound yielding no growth, a slight haze, or sparsely isolated colonies on the inoculum spot as compared to the growth control containing no test compound.

[2] = test system: Campylobacter jejuni ATTC 29428; assay: as above; format: cell-based; settings: ATTC29428, Campylobacter jejuni ATTC 29428, grown aerobically, BHI agar, read-out: Minimum inhibitory concentrations
Method: as §1, §2, §3

[3] = test system: Enterobacter aerogenes ATCC 13048; assay: as above; format: cell-based; settings: Klebsiella aerogenes, ATCC13048, Enterobacter aerogenes ATCC 13048, grown aerobically, BHI agar, read-out: Minimum inhibitory concentrations
Method: as §1, §2, §3

[4] = test system: Enterobacter cloacae CMX 650A; assay: as above; format: cell-based; settings: CMX650A, grown aerobically, BHI agar, read-out: Minimum inhibitory concentrations
Method: as §1, §2, §3

[5] = test system: Enterococcus faecium ATCC 8043; assay: as above; format: cell-based; settings: ATCC8043, Enterococcus faecium ATCC 8043, grown aerobically, BHI agar, read-out: Minimum inhibitory concentrations
Method: as §1, §2, §3

[6] = test system: Escherichia coli JUHL; assay: as above; format: cell-based; settings: grown aerobically, BHI agar, read-out: Minimum inhibitory concentrations
Method: as §1, §2, §3

[7] = test system: Escherichia coli SS; assay: as above; format: cell-based; settings: grown aerobically, BHI agar, read-out: Minimum inhibitory concentrations
Method: as §1, §2, §3

[8] = test system: Haemophilus influenzae 503B; assay: as above; format: cell-based; settings: grown aerobically, BHI agar, read-out: Minimum inhibitory concentrations
Method: as §1, §2, §3

[9] = test system: Klebsiella pneumoniae ATCC 8045; assay: as above; format: cell-based; settings: ATCC8045, Klebsiella pneumoniae ATCC 8045, grown aerobically, BHI agar, read-out: Minimum inhibitory concentrations
Method: as §1, §2, §3

[10] = test system: Neisseria gonorrhoeae 35FAMPI; assay: as above; format: cell-based; settings: grown aerobically, BHI agar, read-out: Minimum inhibitory concentrations
Method: as §1, §2, §3

[11] = test system: Neisseria gonorrhoeae CMX 591; assay: as above; format: cell-based; settings: CMX591, Neisseria gonorrhoeae CMX 591, grown aerobically, BHI agar, read-out: Minimum inhibitory concentrations
Method: as §1, §2, §3

[12] = test system: Proteus mirabilis CMX 704F; assay: as above; format: cell-based; settings: CMX704F, grown aerobically, BHI agar, read-out: Minimum inhibitory concentrations
Method: as §1, §2, §3

[13] = test system: Proteus vulgaris ABBOTT JJ; assay: as above; format: cell-based; settings: grown aerobically, BHI agar, read-out: Minimum inhibitory concentrations
Method: as §1, §2, §3

[14] = test system: Providencia stuartii CMX 640; assay: as above; format: cell-based; settings: CMX640, Providencia stuartii CMX 640, grown aerobically, BHI agar, read-out: Minimum inhibitory concentrations
Method: as §1, §2, §3

[15] = test system: Pseudomonas aeruginosa A5007; assay: as above; format: cell-based; settings: Pseudomonas aeruginosa A5007, grown aerobically, BHI agar, read-out: Minimum inhibitory concentrations
Method: as §1, §2, §3

[16] = test system: Pseudomonas aeruginosa ATCC 27853; assay: as above; format: cell-based; settings: ATCC27853, Pseudomonas aeruginosa ATCC 27853, grown aerobically, BHI agar, read-out: Minimum inhibitory concentrations
Method: as §1, §2, §3

[17] = test system: Pseudomonas aeruginosa BMH 10; assay: as above; format: cell-based; settings: BMH10, Pseudomonas aeruginosa BMH 10, grown aerobically, BHI agar, read-out: Minimum inhibitory concentrations
Method: as §1, §2, §3

[18] = test system: Pseudomonas aeruginosa CFS 387C; assay: as above; format: cell-based; settings: CFS387C, grown aerobically, BHI agar, read-out: Minimum inhibitory concentrations
Method: as §1, §2, §3

[19] = test system: Pseudomonas aeruginosa CFS 389; assay: as above; format: cell-based; settings: CFS389, Pseudomonas aeruginosa CFS 389, grown aerobically, BHI agar, read-out: Minimum inhibitory concentrations
Method: as §1, §2, §3

[20] = test system: Pseudomonas aeruginosa K799/WT; assay: as above; format: cell-based; settings: grown aerobically, BHI agar, read-out: Minimum inhibitory concentrations
Method: as §1, §2, §3

[21] = test system: Pseudomonas cepacia 296I; assay: as above; format: cell-based; settings: Burkholderia cepacia, grown aerobically, BHI agar, read-out: Minimum inhibitory concentrations
Method: as §1, §2, §3

[22] = test system: Serratia marcescens CMX 657E; assay: as above; format: cell-based; settings: CMX657E, grown aerobically, BHI agar, read-out: Minimum inhibitory concentrations
Method: as §1, §2, §3

[23] = test system: Serratia marcescens CMX 740C; assay: as above; format: cell-based; settings: CMX740C, grown aerobically, BHI agar, read-out: Minimum inhibitory concentrations
Method: as §1, §2, §3

[24] = test system: Staphylococcus aureus 45; assay: as above; format: cell-based; settings: Staphylococcus aureus 45, grown aerobically, BHI agar, read-out: Minimum inhibitory concentrations
Method: as §1, §2, §3

[25] = test system: Staphylococcus aureus A5177; assay: as above; format: cell-based; settings: Staphylococcus aureus A5177, grown aerobically, BHI agar, read-out: Minimum inhibitory concentrations
Method: as §1, §2, §3

[26] = test system: Staphylococcus aureus ATCC 6538P; assay: as above; format: cell-based; settings: ATCC6538P, grown aerobically, BHI agar, read-out: Minimum inhibitory concentrations
Method: as §1, §2, §3

[27] = test system: Staphylococcus aureus CMX 686B; assay: as above; format: cell-based; settings: CMX686B, grown aerobically, BHI agar, read-out: Minimum inhibitory concentrations
Method: as §1, §2, §3

[28] = test system: Staphylococcus epidermidis 3519; assay: as above; format: cell-based; settings: Staphylococcus epidermidis 3519, grown aerobically, BHI agar, read-out: Minimum inhibitory concentrations
Method: as §1, §2, §3

[29] = test system: Streptococcus agalactiae CMX 508; assay: as above; format: cell-based; settings: CMX508, Streptococcus agalactiae CMX 508, grown aerobically, BHI agar, read-out: Minimum inhibitory concentrations
Method: as §1, §2, §3

[30] = test system: Streptococcus bovis A 5169; assay: as above; format: cell-based; settings: Streptococcus equinus, A5169, Streptococcus bovis A 5169, grown aerobically, BHI agar, read-out: Minimum inhibitory concentrations
Method: as §1, §2, §3

[31] = test system: Streptococcus pyogenes 930 CONST; assay: as above; format: cell-based; settings: grown aerobically, BHI agar, read-out: Minimum inhibitory concentrations
Method: as §1, §2, §3

[32] = test system: Streptococcus pyogenes EES 614; assay: as above; format: cell-based; settings: EES614, Streptococcus pyogenes EES 614, grown aerobically, BHI agar, read-out: Minimum inhibitory concentrations
Method: as §1, §2, §3

[33] = Solubility (qualitative description); format: physicochemical
Source text: High resolution, positive ion fast atom bombardment (FAB) mass spectrometry established identical molecular ions or m/z 835.3576 for the two isomers corresponding to a formula of C₃₃H₄₉N₁₃0₁₃ (calc. 835.3577). UV lambdamax=286 nm. The coumamidine gamma 1 isomer has an imidazolidone ring at the 2 and 3 position of the terminal sugar, and the coumamidine gamma 2 isomer has an oxazolidone ring at positions 3 and 4 of the terminal sugar.

SMILES | MIC [1] | MIC [3] | MIC [4] | MIC [5] | MIC [6] | MIC [7] | MIC [9] | MIC [12] | MIC [13] | MIC [14] | MIC [15] | MIC [16] | MIC [17] | MIC [18] | MIC [19] | MIC [20] | MIC [21] | MIC [22] | MIC [23] | MIC [24] | other results
CC1OC(Oc2ccc(C=CC(=O)NCCC(=N)N)cc2)C(NC(=N)N)C(O)C1NC(=O)NC1OCC(OC2OCC(O)C3NC(=O)N(C(N)=O)C23)C(O)C1NC(N)=O (stereo not drawn) [gamma 1, coumamidine gamma 1] | 0.25 µg/mL (≈ 0.299 µM) | 1 µg/mL (≈ 1.2 µM) | 4 µg/mL (≈ 4.79 µM) | 16 µg/mL (≈ 19.1 µM) | 0.25 µg/mL (≈ 0.299 µM) | 0.5 µg/mL (≈ 0.598 µM) | 0.25 µg/mL (≈ 0.299 µM) | 1 µg/mL (≈ 1.2 µM) | 2 µg/mL (≈ 2.39 µM) | 0.5 µg/mL (≈ 0.598 µM) | 8 µg/mL (≈ 9.57 µM) | 8 µg/mL (≈ 9.57 µM) | 0.25 µg/mL (≈ 0.299 µM) | 8 µg/mL (≈ 9.57 µM) | 8 µg/mL (≈ 9.57 µM) | 8 µg/mL (≈ 9.57 µM) | 32 µg/mL (≈ 38.3 µM) | 1 µg/mL (≈ 1.2 µM) | 2 µg/mL (≈ 2.39 µM) | 0.5 µg/mL (≈ 0.598 µM) | MIC [2]: 0.06 µg/mL (≈ 0.0718 µM); MIC [8]: 0.03 µg/mL (≈ 0.0359 µM); MIC [10]: 0.5 µg/mL (≈ 0.598 µM); MIC [11]: 0.5 µg/mL (≈ 0.598 µM); MIC [25]: 1 µg/mL (≈ 1.2 µM); MIC [26]: 0.25 µg/mL (≈ 0.299 µM); MIC [27]: 0.25 µg/mL (≈ 0.299 µM); MIC [28]: 0.5 µg/mL (≈ 0.598 µM); MIC [29]: 8 µg/mL (≈ 9.57 µM); MIC [30]: 16 µg/mL (≈ 19.1 µM); MIC [31]: 2 µg/mL (≈ 2.39 µM); MIC [32]: 4 µg/mL (≈ 4.79 µM); solubility in dimethylsulfoxide [33]: readily soluble; solubility in methanol [33]: slightly soluble; solubility in water [33]: readily soluble
CC1OC(Oc2ccc(C=CC(=O)NCCC(=N)N)cc2)C(NC(=N)N)C(O)C1NC(=O)NC1OCC(OC2OCC3OC(=O)NC3C2NC(N)=O)C(O)C1NC(N)=O (stereo not drawn) [gamma 2, coumamidine gamma 2] | 4 µg/mL (≈ 4.79 µM) | 2 µg/mL (≈ 2.39 µM) | 4 µg/mL (≈ 4.79 µM) | 32 µg/mL (≈ 38.3 µM) | 0.5 µg/mL (≈ 0.598 µM) | 1 µg/mL (≈ 1.2 µM) | 0.5 µg/mL (≈ 0.598 µM) | 1 µg/mL (≈ 1.2 µM) | 4 µg/mL (≈ 4.79 µM) | 2 µg/mL (≈ 2.39 µM) | 16 µg/mL (≈ 19.1 µM) | 8 µg/mL (≈ 9.57 µM) | 0.5 µg/mL (≈ 0.598 µM) | 16 µg/mL (≈ 19.1 µM) | 8 µg/mL (≈ 9.57 µM) | 16 µg/mL (≈ 19.1 µM) | > 32 µg/mL | 2 µg/mL (≈ 2.39 µM) | 2 µg/mL (≈ 2.39 µM) | 1 µg/mL (≈ 1.2 µM) | MIC [25]: 1 µg/mL (≈ 1.2 µM); MIC [26]: 0.5 µg/mL (≈ 0.598 µM); MIC [27]: 0.5 µg/mL (≈ 0.598 µM); MIC [28]: 1 µg/mL (≈ 1.2 µM); MIC [29]: 16 µg/mL (≈ 19.1 µM); MIC [30]: 32 µg/mL (≈ 38.3 µM); MIC [31]: 1 µg/mL (≈ 1.2 µM); MIC [32]: 1 µg/mL (≈ 1.2 µM); solubility in dimethylsulfoxide [33]: readily soluble; solubility in methanol [33]: slightly soluble; solubility in water [33]: readily soluble
